According to patent publication US20240238424A1, “HETEROBIFUNCTIONAL COMPOUNDS AND METHODS OF TREATING DISEASE” (Halda Therapeutics OpCo, Inc., priority 2021, published 2024):

Biological target: T1, GSPT1 (Homo sapiens, UniProt P15170+Q96SW2)
T1 construct: host or cells: HEK293 LgBiT cell line
Test: GSPT1 HiBit degradation assay
Assay type: cell-based
Details: HEK293 LgBiT cells expressing GSPT1_HiBiT, luminescence after 6 hours
Description: Promega developed a HEK293 cell line that constitutively expresses LgBiT protein and GSPT1_HiBiT fusion protein. When both proteins are present, the HiBiT portion of the fusion protein combines with LgBiT protein to form a functional luciferase enzyme. Endurazine, a cell permeable small molecule, is converted by cellular esterases into furimazine, which the luciferase enzyme uses as a substrate to generate luminescence. When GSPT1 is degraded, the HiBit is also degraded. This prevents formation of fully functional luciferase, leading to a loss in luminescence. GSPT1 degradation therefore correlates with a decrease in luminescence and can be measured continuously over time. The concentration of compound at which 50% GSPT1 degradation occurs (DC50) was calculated using this system.
• HEK293 LgBiT Cell line (Promega Custom) • Endurazine Substrate (Promega Cat. #N2570) • DMEM (Gibco Cat. #11995) • Penicillin/Streptomycin (Gibco Cat. #15140-122) • Heat Inactivated Fetal Bovine Serum (Gibco Cat. #A38400-01) • Hygromycin B (Gibco Cat. #10-687-010) • 384 Well TC Treated White Microplate (Perkin Elmer Cat. #6007680)
HEK293 LgBiT cells were cultured in DMEM Media supplemented with 10% FBS, 5% Pen/Strep, 200 μg/ml hygromycin and stored in an incubator set at 37° C. and 5% CO2. 18-24 hours prior to compound treatment, HEK293 LgBiT cells were seeded at 1000 cells/well in a 384-well microplate in 25 μl complete media. The plate was spun at 300 g for 30 seconds and stored in the incubator overnight. The next day, compounds were titrated in DMSO and added to media supplemented with endurazine substrate. A 25 ul aliquot of 2× compound/endurazine in media were then added to the 384-well microplate with seeded cells. (Endurazine was used at a final concentration of 0.5×). The plate was spun at 300 g for 30 seconds and stored in the incubator. After 6 hours the plate was read on a Perkin Elmer MultiMode Plate Reader Envision 2105 to measure luminescence signal.

T1 sequence (P15170 whole entry): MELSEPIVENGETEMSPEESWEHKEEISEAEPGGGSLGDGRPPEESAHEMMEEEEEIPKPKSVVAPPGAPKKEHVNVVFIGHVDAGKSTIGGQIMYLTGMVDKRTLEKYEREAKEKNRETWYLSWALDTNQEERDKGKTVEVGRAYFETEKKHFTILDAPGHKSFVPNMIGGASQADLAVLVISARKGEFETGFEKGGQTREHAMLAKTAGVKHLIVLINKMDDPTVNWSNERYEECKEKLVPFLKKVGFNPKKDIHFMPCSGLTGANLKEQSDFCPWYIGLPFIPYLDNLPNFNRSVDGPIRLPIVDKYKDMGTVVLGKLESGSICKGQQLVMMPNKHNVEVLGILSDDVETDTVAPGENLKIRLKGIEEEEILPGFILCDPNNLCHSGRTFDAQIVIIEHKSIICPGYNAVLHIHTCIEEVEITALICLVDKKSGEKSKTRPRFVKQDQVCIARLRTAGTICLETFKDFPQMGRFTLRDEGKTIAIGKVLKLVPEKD
T1 sequence (Q96SW2 whole entry): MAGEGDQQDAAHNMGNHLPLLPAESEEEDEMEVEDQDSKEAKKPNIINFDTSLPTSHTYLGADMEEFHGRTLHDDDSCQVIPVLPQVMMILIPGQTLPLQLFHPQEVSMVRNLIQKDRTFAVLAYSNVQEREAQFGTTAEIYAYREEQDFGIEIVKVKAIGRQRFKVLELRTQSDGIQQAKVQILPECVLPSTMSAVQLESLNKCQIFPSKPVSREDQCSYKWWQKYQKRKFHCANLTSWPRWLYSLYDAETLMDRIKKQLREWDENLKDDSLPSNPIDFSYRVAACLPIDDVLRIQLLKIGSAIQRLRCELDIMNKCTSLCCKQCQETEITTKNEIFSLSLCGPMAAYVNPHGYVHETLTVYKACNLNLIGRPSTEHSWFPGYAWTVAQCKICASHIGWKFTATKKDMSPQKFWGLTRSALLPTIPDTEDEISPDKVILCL
T1 sequence (Q16531 whole entry partner): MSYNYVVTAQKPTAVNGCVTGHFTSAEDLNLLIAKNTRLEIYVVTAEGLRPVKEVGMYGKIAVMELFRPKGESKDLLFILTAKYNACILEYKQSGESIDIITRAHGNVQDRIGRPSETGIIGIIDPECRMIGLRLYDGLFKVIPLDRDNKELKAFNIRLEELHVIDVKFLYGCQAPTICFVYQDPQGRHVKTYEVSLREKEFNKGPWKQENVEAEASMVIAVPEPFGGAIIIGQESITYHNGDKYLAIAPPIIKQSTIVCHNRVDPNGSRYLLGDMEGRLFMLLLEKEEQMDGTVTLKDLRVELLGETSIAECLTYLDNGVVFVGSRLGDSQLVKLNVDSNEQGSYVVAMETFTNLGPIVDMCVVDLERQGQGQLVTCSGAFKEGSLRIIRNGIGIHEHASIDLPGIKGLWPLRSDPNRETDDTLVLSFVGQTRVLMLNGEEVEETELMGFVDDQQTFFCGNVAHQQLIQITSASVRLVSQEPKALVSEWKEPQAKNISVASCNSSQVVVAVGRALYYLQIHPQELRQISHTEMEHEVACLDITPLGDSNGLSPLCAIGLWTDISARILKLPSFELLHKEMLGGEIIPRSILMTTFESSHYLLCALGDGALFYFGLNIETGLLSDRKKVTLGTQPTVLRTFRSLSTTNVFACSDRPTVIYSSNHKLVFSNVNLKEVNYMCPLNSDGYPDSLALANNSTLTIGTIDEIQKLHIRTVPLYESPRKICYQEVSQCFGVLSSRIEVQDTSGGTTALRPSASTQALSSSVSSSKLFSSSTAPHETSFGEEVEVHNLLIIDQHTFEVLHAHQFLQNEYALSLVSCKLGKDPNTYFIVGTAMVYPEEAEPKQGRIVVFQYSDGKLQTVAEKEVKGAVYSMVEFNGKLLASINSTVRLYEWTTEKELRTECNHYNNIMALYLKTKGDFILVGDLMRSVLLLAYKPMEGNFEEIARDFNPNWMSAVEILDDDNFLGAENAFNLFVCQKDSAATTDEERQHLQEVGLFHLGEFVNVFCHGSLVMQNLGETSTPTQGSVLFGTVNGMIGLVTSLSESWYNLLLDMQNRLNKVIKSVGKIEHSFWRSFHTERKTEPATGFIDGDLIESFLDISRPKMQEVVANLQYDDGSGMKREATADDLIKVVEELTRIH

Structure (SMILES)	DC50 (Table 3A)	DC50 (Table 3)
Cc1c(CC(=O)N(C)C)ccc(NC(=O)c2nn([C@@H]3CCCN(C(=O)/C=C/CN(C)CCOCCOCCOCCOCCOCCOCCc4cc(Cl)cc(NC(=O)NCc5ccc6c(c5)CN(C5CCC(=O)NC5=O)C6=O)c4)C3)c3ncnc(N)c23)c1C (stereo partly drawn) [Compound I-23, 4-amino-1-[(3R)-1-[(E)-4-[2-[2-[2-[2-[2-[2-[2-[3-chloro-5-[[2-(2,6-dioxo-3-piperidyl)-1-oxo-isoindolin-5-yl]methylcarbamoylamino]phenyl]ethoxy]ethoxy]ethoxy]ethoxy]ethoxy]ethoxy]ethyl-methyl-amino]but-2-enoyl]-3-piperidyl]-N-[4-[2-(dimethylamino)-2-oxo-ethyl]-2,3-dimethyl-phenyl]pyrazolo [3,4-d]pyrimidine-3-carboxamide]	> 10 µM	–
COc1cc(N2CCN(C(=O)COCCOCCOCCOCCOCCOCCOCCOCCOCCOCCOc3cc(Cl)cc(NC(=O)NCc4ccc5c(c4)CN(C4CCC(=O)NC4=O)C5=O)c3)CC2)ccc1Nc1ncc(Cl)c(Nc2ccccc2P(C)(C)=O)n1 (centres unmarked) [Compound I-24, 1-[3-chloro-5-[2-[2-[2-[2-[2-[2-[2-[2-[2-[2-[2-[4-[4-[[5-chloro-4-(2-dimethylphosphorylanilino)pyrimidin-2-yl]amino]-3-methoxy-phenyl]piperazin-1-yl]-2-oxo-ethoxy]ethoxy]ethoxy]ethoxy]ethoxy]ethoxy]ethoxy]ethoxy]ethoxy]ethoxy]ethoxy]phenyl]-3-[[2-(2,6-dioxo-3-piperidyl)-1-oxo-isoindolin-5-yl]methyl]urea]	> 10 µM	–
COc1cc(N2CCN(C(=O)COCCOCCOCCOCCOCCOCCOc3cc(Cl)cc(NC(=O)NCc4ccc5c(c4)CN(C4CCC(=O)NC4=O)C5=O)c3)CC2)ccc1Nc1ncc(Cl)c(Nc2ccccc2P(C)(C)=O)n1 (centres unmarked) [Compound I-25]	> 10 µM	–
COc1cc(N2CCN(C(=O)COCCOCCOCCOCCOCCOCCOCCOCCOc3cc(Cl)cc(NC(=O)NCc4ccc5c(c4)CN(C4CCC(=O)NC4=O)C5=O)c3)CC2)ccc1Nc1ncc(Cl)c(Nc2ccccc2P(C)(C)=O)n1 (centres unmarked) [Compound I-26]	–	> 10 µM
COc1cc(N2CCN(C(=O)COCCOCCOCCOCCOCCOCCOCCOCCc3cc(Cl)cc(NC(=O)NCc4ccc5c(c4)CN(C4CCC(=O)NC4=O)C5=O)c3)CC2)ccc1Nc1ncc(Cl)c(Nc2ccccc2P(C)(C)=O)n1 (centres unmarked) [Compound I-27]	–	5 to 10 µM
CC1(C)[C@H](NC(=O)c2ccc(OCCOCCOCCOCCOCCOCCOCCOCCOCCc3cc(Cl)cc(NC(=O)NCc4ccc5c(c4)CN(C4CCC(=O)NC4=O)C5=O)c3)cc2)C(C)(C)[C@H]1Oc1ccc(C#N)c(Cl)c1 (some centres unmarked) [Compound I-28]	–	0.25 to 5 µM
CC1(C)[C@H](NC(=O)c2ccc(OCCOCCOCCOCCOCCOCCOCCOCCOCCOCCOCCc3cc(Cl)cc(NC(=O)NCc4ccc5c(c4)CN(C4CCC(=O)NC4=O)C5=O)c3)cc2)C(C)(C)[C@H]1Oc1ccc(C#N)c(Cl)c1 (some centres unmarked) [Compound I-29]	–	0.25 to 5 µM
C=CC(=O)Nc1cc(Nc2nccc(-c3cn(C)c4ccccc34)n2)c(OC)cc1N(C)CCN(C)CCOCCOCCOCCOCCOCCOCCOc1cc(Cl)cc(NC(=O)NCc2ccc3c(c2)CN(C2CCC(=O)NC2=O)C3=O)c1 (centres unmarked) [Compound I-33]	–	5 to 10 µM
C=CC(=O)Nc1cc(Nc2nccc(-c3cn(C)c4ccccc34)n2)c(OC)cc1N(C)CCN(C)CCOCCOCCOCCOCCOCCOCCc1cc(Cl)cc(NC(=O)NCc2ccc3c(c2)CN(C2CCC(=O)NC2=O)C3=O)c1 (centres unmarked) [Compound I-34]	–	5 to 10 µM
C=CC(=O)Nc1cc(Nc2nccc(-c3cn(C)c4ccccc34)n2)c(OC)cc1N(C)CCN(C)CCOCCOCCOCCOCCOCCOCCOCCOCCc1cc(Cl)cc(NC(=O)NCc2ccc3c(c2)CN(C2CCC(=O)NC2=O)C3=O)c1 (centres unmarked) [Compound I-35]	–	> 10 µM
C=CC(=O)Nc1cc(Nc2nccc(-c3cn(C)c4ccccc34)n2)c(OC)cc1N(C)CCN(C)CCOCCOCCOCCOCCOCCOCCOCCOCCOCCOCCc1cc(Cl)cc(NC(=O)NCc2ccc3c(c2)CN(C2CCC(=O)NC2=O)C3=O)c1 (centres unmarked) [Compound I-36]	–	5 to 10 µM
COc1cc(N2CCN(C(=O)COCCOCCOCCOCCOCCOCCOCCOCCOCCOCCc3cc(Cl)cc(NC(=O)NCc4ccc5c(c4)CN(C4CCC(=O)NC4=O)C5=O)c3)CC2)ccc1Nc1ncc(Cl)c(Nc2ccccc2P(C)(C)=O)n1 (centres unmarked) [Compound I-45]	–	5 to 10 µM
CCN(CCOCCOCCOCCOCCOCCOCCCCCCCCc1cc(Cl)cc(NC(=O)NCc2ccc3c(c2)CN(C2CCC(=O)NC2=O)C3=O)c1)CCOc1ccc(C(=O)c2c(-c3ccc(O)cc3)sc3cc(O)ccc23)cc1 (centres unmarked) [Compound I-55]	–	< 0.25 µM
CCN(CCOCCOCCOCCOCCOCCOCCCCCCCCCCCCCCc1cc(Cl)cc(NC(=O)NCc2ccc3c(c2)CN(C2CCC(=O)NC2=O)C3=O)c1)CCOc1ccc(C(=O)c2c(-c3ccc(O)cc3)sc3cc(O)ccc23)cc1 (centres unmarked) [Compound I-56]	–	> 10 µM
C=CC(=O)Nc1cc(Nc2nccc(-c3cn(C)c4ccccc34)n2)c(OC)cc1N(C)CCN(C)CCOCCOCCOCCOCCOCCOCCOCCOCCOc1cc(Cl)cc(NC(=O)NCc2ccc3c(c2)CN(C2CCC(=O)NC2=O)C3=O)c1 (centres unmarked) [Compound I-57]	–	> 10 µM
CCN(CCCCCCCCc1cc(Cl)cc(NC(=O)NCc2ccc3c(c2)CN(C2CCC(=O)NC2=O)C3=O)c1)CCOc1ccc(C(=O)c2c(-c3ccc(O)cc3)sc3cc(O)ccc23)cc1 (centres unmarked) [Compound I-58]	–	< 0.25 µM
CCN(CCOCCOCCOCCOCCCCCCCCCCCCCCc1cc(Cl)cc(NC(=O)NCc2ccc3c(c2)CN(C2CCC(=O)NC2=O)C3=O)c1)CCOc1ccc(C(=O)c2c(-c3ccc(O)cc3)sc3cc(O)ccc23)cc1 (centres unmarked) [Compound I-59]	–	0.25 to 5 µM
C=CC(=O)Nc1cc(Nc2nccc(-c3cn(C)c4ccccc34)n2)c(OC)cc1N(C)CCN(C)CCOCCOCCOCCOCCOCCOCCOCCOCCOCCOCCOc1cc(Cl)cc(NC(=O)NCc2ccc3c(c2)CN(C2CCC(=O)NC2=O)C3=O)c1 (centres unmarked) [Compound I-60]	–	5 to 10 µM
C=CC(=O)Nc1cc(Nc2nccc(-c3cn(C)c4ccccc34)n2)c(OC)cc1N(C)CCN(C)CCOCCOCCOCCOCCCCCCCCc1cc(Cl)cc(NC(=O)NCc2ccc3c(c2)CN(C2CCC(=O)NC2=O)C3=O)c1 (centres unmarked) [Compound I-61]	–	< 0.25 µM
C=CC(=O)Nc1cc(Nc2nccc(-c3cn(C)c4ccccc34)n2)c(OC)cc1N(C)CCN(C)CCOCCOCCOCCOCCOCCOCCCCCCCCc1cc(Cl)cc(NC(=O)NCc2ccc3c(c2)CN(C2CCC(=O)NC2=O)C3=O)c1 (centres unmarked) [Compound I-62]	–	< 0.25 µM
C=CC(=O)Nc1cc(Nc2nccc(-c3cn(C)c4ccccc34)n2)c(OC)cc1N(C)CCN(C)CCOCCOCCOCCOCCOCCOCCOCCOCCOCCOCCCCCCCCc1cc(Cl)cc(NC(=O)NCc2ccc3c(c2)CN(C2CCC(=O)NC2=O)C3=O)c1 (centres unmarked) [Compound I-63]	–	< 0.25 µM
Cc1c(CC(=O)N(C)C)ccc(NC(=O)c2nn([C@H]3CCCN(C(=O)/C=C/CN(C)CCOCCOCCOCCOCCCCCCCCc4cc(Cl)cc(NC(=O)NCc5ccc6c(c5)CN(C5CCC(=O)NC5=O)C6=O)c4)C3)c3ncnc(N)c23)c1C (some centres unmarked) [Compound I-64]	–	< 0.25 µM
Cc1c(CC(=O)N(C)C)ccc(NC(=O)c2nn(C3CCCN(C(=O)/C=C/CN(C)CCOCCOCCOCCOCCOCCOCCCCCCCCc4cc(Cl)cc(NC(=O)NCc5ccc6c(c5)CN(C5CCC(=O)NC5=O)C6=O)c4)C3)c3ncnc(N)c23)c1C (centres unmarked) [Compound I-65]	–	< 0.25 µM
Cc1c(CC(=O)N(C)C)ccc(NC(=O)c2nn([C@H]3CCCN(C(=O)/C=C/CN(C)CCOCCOCCOCCOCCOCCOCCOCCOCCOCCOCCCCCCCCc4cc(Cl)cc(NC(=O)NCc5ccc6c(c5)CN(C5CCC(=O)NC5=O)C6=O)c4)C3)c3ncnc(N)c23)c1C (some centres unmarked) [Compound I-66]	–	0.25 to 5 µM
C=CC(=O)Nc1cc(Nc2nccc(-c3cn(C)c4ccccc34)n2)c(OC)cc1N(C)CCN(C)CCOCCOCCOCCOCCOCCOCCOCCOCCCCCCCCc1cc(Cl)cc(NC(=O)NCc2ccc3c(c2)CN(C2CCC(=O)NC2=O)C3=O)c1 (centres unmarked) [Compound I-68]	–	< 0.25 µM
Cc1c(CC(=O)N(C)C)ccc(NC(=O)c2nn([C@@H]3CCCN(C(=O)/C=C/CN(C)CCOCCOCCOCCOCCOCCOCCOCCOCCCCCCCCc4cc(Cl)cc(NC(=O)NCc5ccc6c(c5)CN(C5CCC(=O)NC5=O)C6=O)c4)C3)c3ncnc(N)c23)c1C (some centres unmarked) [Compound I-69]	–	< 0.25 µM
C=C(F)C(=O)N1CCN(c2nc(OC[C@@H]3CCCN3CCCOCCOCCOCCOCCCCCCCCc3cc(Cl)cc(NC(=O)NCc4ccc5c(c4)CN(C4CCC(=O)NC4=O)C5=O)c3)nc3c2CCN(c2cccc4cccc(Cl)c24)C3)C[C@@H]1CC#N (some centres unmarked) [Compound I-70]	–	< 0.25 µM
C=C(F)C(=O)N1CCN(c2nc(OC[C@H]3CCCN3CCCOCCOCCOCCOCCOCCOCCCCCCCCc3cc(Cl)cc(NC(=O)NCc4ccc5c(c4)CN(C4CCC(=O)NC4=O)C5=O)c3)nc3c2CCN(c2cccc4cccc(Cl)c24)C3)C[C@H]1CC#N (some centres unmarked) [Compound I-71]	–	< 0.25 µM
CCN(CCOCCOCCOCCOCCCCCCCCc1cc(Cl)cc(NC(=O)NCc2ccc3c(c2)CN(C2CCC(=O)NC2=O)C3=O)c1)CCOc1ccc(C(=O)c2c(-c3ccc(O)cc3)sc3cc(O)ccc23)cc1 (centres unmarked) [Compound I-77]	< 0.25 µM	–
